What is called IC50 is the concentration that inhibits the measured activity by half. Read a high IC50 as lower potency.

For one compound, IC50 results are on record in ChEMBL document CHEMBL1129670, “Synthesis and structure-activity relationships of N-propyl-N-(4-pyridinyl)-1H-indol-1-amine (besipirdine) and related analogs as potential therapeutic agents for Alzheimer's disease” (J Med Chem, 1996).

Assay [1] deals with T1, 5-hydroxytryptamine receptor 1A (Rattus norvegicus, UniProt P19327).
T1 sequence (P19327 whole entry): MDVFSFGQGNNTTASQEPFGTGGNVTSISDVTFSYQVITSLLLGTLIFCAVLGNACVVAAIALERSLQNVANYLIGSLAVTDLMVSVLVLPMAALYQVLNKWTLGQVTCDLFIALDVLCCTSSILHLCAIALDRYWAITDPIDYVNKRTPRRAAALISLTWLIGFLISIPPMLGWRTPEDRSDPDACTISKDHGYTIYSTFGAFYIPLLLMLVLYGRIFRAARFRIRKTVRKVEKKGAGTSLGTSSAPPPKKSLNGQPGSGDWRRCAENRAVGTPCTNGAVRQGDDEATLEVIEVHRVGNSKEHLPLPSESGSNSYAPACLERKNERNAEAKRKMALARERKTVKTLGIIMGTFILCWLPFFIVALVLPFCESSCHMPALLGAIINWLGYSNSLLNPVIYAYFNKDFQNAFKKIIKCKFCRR
The assay can be described thus: Inhibitory activity against [3H]DPAT binding to 5-HT1A receptor in rat hippocampus. Type of assay: tissue-based.

For the next assay, the target named is T2, Acetylcholinesterase (Rattus norvegicus, UniProt P37136).
T2 sequence (P37136 whole entry): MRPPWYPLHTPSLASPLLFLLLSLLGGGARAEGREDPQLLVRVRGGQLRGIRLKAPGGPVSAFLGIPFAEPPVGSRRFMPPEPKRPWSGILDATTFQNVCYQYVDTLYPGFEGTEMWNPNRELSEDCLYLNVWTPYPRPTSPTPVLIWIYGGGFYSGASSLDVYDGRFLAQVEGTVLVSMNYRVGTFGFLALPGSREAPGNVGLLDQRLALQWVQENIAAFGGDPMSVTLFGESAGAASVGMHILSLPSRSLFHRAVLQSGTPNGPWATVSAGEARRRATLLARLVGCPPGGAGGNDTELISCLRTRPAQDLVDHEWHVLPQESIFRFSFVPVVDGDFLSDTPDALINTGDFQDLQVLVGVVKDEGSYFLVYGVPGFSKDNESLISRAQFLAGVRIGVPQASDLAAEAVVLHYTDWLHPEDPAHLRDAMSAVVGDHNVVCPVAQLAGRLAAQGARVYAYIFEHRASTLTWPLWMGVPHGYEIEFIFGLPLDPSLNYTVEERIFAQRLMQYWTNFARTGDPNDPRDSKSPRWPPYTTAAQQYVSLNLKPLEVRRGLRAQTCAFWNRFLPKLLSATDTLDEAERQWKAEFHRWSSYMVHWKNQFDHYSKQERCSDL
The assay can be described thus: Inhibitory activity against Acetylcholinesterase in rat striatum. Type of assay: tissue-based.

Assay [2] has as its target T3, Adrenergic receptor alpha-2 (Rattus norvegicus, UniProt P22086+P19328+P22909).
T3 sequence (P22086 whole entry): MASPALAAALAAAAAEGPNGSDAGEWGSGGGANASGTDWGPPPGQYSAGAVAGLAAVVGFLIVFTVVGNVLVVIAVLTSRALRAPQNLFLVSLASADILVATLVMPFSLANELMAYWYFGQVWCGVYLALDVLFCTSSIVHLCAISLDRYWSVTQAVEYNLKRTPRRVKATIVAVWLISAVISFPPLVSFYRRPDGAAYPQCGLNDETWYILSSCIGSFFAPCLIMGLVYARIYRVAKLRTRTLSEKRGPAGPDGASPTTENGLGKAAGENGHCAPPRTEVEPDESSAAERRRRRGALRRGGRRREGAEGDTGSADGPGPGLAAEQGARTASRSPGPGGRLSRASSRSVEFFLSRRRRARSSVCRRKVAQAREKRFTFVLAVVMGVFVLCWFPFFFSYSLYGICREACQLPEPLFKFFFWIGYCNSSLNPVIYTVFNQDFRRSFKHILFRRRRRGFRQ
T3 sequence (P19328 whole entry): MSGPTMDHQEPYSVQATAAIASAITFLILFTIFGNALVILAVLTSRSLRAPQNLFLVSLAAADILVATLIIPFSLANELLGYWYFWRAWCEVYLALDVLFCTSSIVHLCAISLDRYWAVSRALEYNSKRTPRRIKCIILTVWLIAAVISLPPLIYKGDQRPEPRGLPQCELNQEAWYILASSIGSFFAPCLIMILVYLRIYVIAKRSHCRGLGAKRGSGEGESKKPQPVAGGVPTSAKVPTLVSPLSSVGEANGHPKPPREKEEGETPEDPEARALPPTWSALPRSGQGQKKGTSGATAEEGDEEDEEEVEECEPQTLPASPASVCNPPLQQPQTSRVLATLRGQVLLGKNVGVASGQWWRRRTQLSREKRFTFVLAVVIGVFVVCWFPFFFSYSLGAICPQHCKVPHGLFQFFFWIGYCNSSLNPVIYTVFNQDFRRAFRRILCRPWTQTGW
T3 sequence (P22909 whole entry): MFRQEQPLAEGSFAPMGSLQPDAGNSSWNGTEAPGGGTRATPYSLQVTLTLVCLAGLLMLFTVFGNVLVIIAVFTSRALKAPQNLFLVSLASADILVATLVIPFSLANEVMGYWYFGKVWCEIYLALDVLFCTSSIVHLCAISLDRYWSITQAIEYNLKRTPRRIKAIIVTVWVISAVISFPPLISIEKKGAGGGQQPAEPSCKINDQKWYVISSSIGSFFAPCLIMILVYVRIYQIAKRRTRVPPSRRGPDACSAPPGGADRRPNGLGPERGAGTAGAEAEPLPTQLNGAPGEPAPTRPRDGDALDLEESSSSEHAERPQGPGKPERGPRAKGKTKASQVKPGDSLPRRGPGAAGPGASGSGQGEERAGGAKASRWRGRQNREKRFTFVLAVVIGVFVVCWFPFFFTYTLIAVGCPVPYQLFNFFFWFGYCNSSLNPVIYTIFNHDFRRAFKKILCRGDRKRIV
Nature of the assay: Inhibitory activity against [3H]-idazoxan binding to Alpha-2 adrenergic receptor in rat cortex.

In a further assay the target is D(1A) dopamine receptor (Rattus norvegicus, UniProt P18901). The assay can be described thus: Inhibitory activity against [3H]SCH-23390 binding to Dopamine receptor D1 in rat striatum. Type of assay: tissue-based.
Sequence of D(1A) dopamine receptor (P18901 whole entry): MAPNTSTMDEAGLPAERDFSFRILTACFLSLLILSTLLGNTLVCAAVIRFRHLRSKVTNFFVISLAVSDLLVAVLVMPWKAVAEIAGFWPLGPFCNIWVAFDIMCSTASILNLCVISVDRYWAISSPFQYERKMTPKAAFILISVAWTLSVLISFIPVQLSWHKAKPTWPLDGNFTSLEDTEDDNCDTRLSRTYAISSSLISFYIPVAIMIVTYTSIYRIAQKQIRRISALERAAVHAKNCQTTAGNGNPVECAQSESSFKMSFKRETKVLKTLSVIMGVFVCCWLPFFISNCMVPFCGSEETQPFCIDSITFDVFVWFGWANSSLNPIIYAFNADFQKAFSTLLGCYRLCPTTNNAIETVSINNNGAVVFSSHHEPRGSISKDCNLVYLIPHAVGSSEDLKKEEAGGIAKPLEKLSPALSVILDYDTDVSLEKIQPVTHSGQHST
For a further assay, the target named is D(2) dopamine receptor (Rattus norvegicus, UniProt P61169). The assay can be described thus: Inhibitory activity against [3H]spiroperidol bingind to Dopamine receptor D2 in rat striatum. Type of assay: tissue-based.
Sequence of D(2) dopamine receptor (P61169 whole entry): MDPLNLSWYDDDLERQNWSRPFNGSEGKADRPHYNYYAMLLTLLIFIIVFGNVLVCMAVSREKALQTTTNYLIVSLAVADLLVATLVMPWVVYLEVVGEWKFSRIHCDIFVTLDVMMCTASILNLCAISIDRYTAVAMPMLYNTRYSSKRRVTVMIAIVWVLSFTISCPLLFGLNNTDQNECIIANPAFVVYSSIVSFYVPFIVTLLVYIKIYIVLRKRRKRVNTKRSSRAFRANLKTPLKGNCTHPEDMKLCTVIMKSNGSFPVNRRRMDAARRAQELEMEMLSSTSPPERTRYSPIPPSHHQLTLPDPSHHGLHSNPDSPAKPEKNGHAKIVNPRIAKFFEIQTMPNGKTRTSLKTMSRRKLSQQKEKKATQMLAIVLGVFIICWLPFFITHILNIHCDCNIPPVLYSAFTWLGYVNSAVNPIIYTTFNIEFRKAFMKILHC

Bounds are passed on as bounds.

As to `CCCN(c1ccncc1)n1ccc2ccccc21` [BESIPIRDINE], the IC50 in assay [1] was less than 20 µM; against Acetylcholinesterase it was greater than 100 µM; in assay [2], 0.47 µM; on D(1A) dopamine receptor it was greater than 20 µM; against D(2) dopamine receptor it was greater than 20 µM.
